Literature values in article PMC3838783 (Applied Biochemistry and Biotechnology, 2013).

System: rats

CC(=O)NO [acetohydroxyamic acid]
Teratogenicity: teratogenic
